Where “and” joins values, the source holds several entries; their conditions need not be identical. Equal values may be shown once.
Conditions: Crystal, Calculated from knudsen effusion weight loss

Clc1ccc(-n2cccc2)cc1 [1-(4-chlorophenyl)-1H-pyrrole]
Conditions | vapor or sublimation pressure
295.22 K | 0.000183 kPa and 0.000176 kPa and 0.000175 kPa
297.17 K | 0.000227 kPa and 0.00022 kPa and 0.000219 kPa
299.22 K | 0.000289 kPa and 0.000279 kPa and 0.000275 kPa
301.12 K | 0.000363 kPa and 0.000364 kPa and 0.000378 kPa
303.17 K | 0.000467 kPa and 0.000463 kPa and 0.000451 kPa
305.21 K | 0.000595 kPa and 0.000571 kPa and 0.000558 kPa
307.1 K | 0.000744 kPa and 0.000715 kPa and 0.000706 kPa
309.12 K | 0.000904 kPa and 0.000892 kPa and 0.000871 kPa
311.22 K | 0.001132 kPa and 0.001115 kPa and 0.001084 kPa

Fc1ccc(-n2cccc2)cc1 [1-(4-fluorophenyl)pyrrole]
Conditions | vapor or sublimation pressure
271.14 K | 0.000157 kPa and 0.000149 kPa and 0.000152 kPa
273.16 K | 0.0002 kPa and 0.000197 kPa
275.2 K | 0.000237 kPa and 0.000236 kPa
277.18 K | 0.000303 kPa and 0.000288 kPa and 0.000313 kPa
279.18 K | 0.000396 kPa and 0.000393 kPa and 0.000391 kPa
281.18 K | 0.000509 kPa and 0.000505 kPa and 0.000497 kPa
283.12 K | 0.000688 kPa and 0.000694 kPa and 0.00068 kPa
285.13 K | 0.000863 kPa and 0.000854 kPa and 0.000832 kPa
287.17 K | 0.001072 kPa and 0.001068 kPa and 0.001064 kPa

Ic1ccc(-n2cccc2)cc1 [1-(4-iodophenyl)pyrrole]
Conditions | vapor or sublimation pressure
319.11 K | 0.000107 kPa and 0.000112 kPa and 0.000109 kPa
321.19 K | 0.000142 kPa and 0.00014 kPa and 0.000137 kPa
323.18 K | 0.000174 kPa and 0.000169 kPa
325.12 K | 0.000218 kPa and 0.000216 kPa and 0.00021 kPa
327.19 K | 0.000274 kPa and 0.00027 kPa and 0.000265 kPa
329.18 K | 0.000336 kPa and 0.000331 kPa and 0.000329 kPa
331.11 K | 0.000402 kPa and 0.000421 kPa and 0.000416 kPa
333.17 K | 0.00052 kPa and 0.000522 kPa and 0.000508 kPa
335.17 K | 0.000639 kPa and 0.000628 kPa and 0.000624 kPa
337.12 K | 0.000778 kPa and 0.000814 kPa and 0.000806 kPa
339.19 K | 0.001022 kPa and 0.001014 kPa and 0.000977 kPa
341.17 K | 0.001237 kPa and 0.001212 kPa and 0.001211 kPa

— the NIST ThermoML archive (doi:10.1016/j.jct.2010.06.012)
